Results on 19 compounds are retold here after patent publication US11006626B2, “Compounds for protection of cells” (Sulfateq B.V., priority 2012, dated 2021).

Each structure is given as a SMILES string. Read-outs that look alike come from different tables or passages of the source.

This assay deals with Human Embryo Kidney (HEK) 293 cells. Put plainly: Hypothermia/rewarming injury of HEK cells, trypan blue viability count. The class given is cell-based. The conditions noted are these: for viability at 0.1 µM / viability at 1 µM / viability at 10 µM / viability at 100 µM / viability at 1000 µM / viability at 0.01 µM: Homo sapiens, 24 h at 4° C., 24 h rewarming, read-out: % cells that survived; for viability at 0.1 µM: 100 nM; for viability at 1000 µM: 1 mM; for % cells that survived, Mean: mean over the tested concentrations; for viability at 0.01 µM: 10 nM.

Method: Human Embryo Kidney (HEK) 293 cells were cultured in DMEM cell culture medium (Life Technologies, 41965-052) supplemented with fetal calf serum, penicillin and streptomycin. Cells were seeded at a density of 0.8-1.2E6 mL-1 in 25 cm2 polystyrene flasks, placed in a 37° C.
The compounds were dissolved in dimethyl sulfoxide (DMSO) to several concentrations. Before commencing experiments, this stock solution was dissolved in pre-warmed DMEM and further diluted to obtain a concentration range from 10 nM-1 mM. Cell culture medium was then replaced by these dilutions and cells were incubated in the presence of the compound for 1 hour. After incubation, lids were closed tightly and flasks were placed in a 4° C. room and cooled for 24 hours. After this cooling period, cells were placed back in the 37° C. incubator with lids closed and were allowed to rewarm for another 24 hours.
After this rewarming period, microscopic images were taken to assess cell morphology (Nikon D5100, Nikon Diaphot-TMD). Cell culture medium was collected and centrifuged (4 minutes, 2000 rpm). The supernatant was collected and pH was immediately measured to prevent equilibration of the pH by the carbonate buffer in the medium, while the pelleted cells were resuspended in 5 mL of PBS. Cells remaining in the flask were washed twice with phosphate buffered saline (PBS) while the washing product was discarded. Subsequently, the cells were trypsinized by addition of 0.5 mL of trypsine and pooled with the resuspended pellet. This cell suspension was then stained at a final concentration of 0.2% trypan blue (Sigma, T8154), followed by manual assessment of viability and cell number on a Bürker-Türk hemocytometer. To conclude the assay, cell culture medium glucose levels were measured (Roche Accutrend Plus) as an indication of metabolic activity. All of these steps were performed with care to prevent mechanical stress to influence or alter the viability of the cells after cooling.
The amount represents the % cells that survived. […] In the control, the same procedure was applied to two badges of HEK cells.

Take `Cc1c(C)c2c(c(C)c1O)CCC(C)(C)O2` [SUL - 83, 2,2,5,7,8-pentamethylchroman-6-ol]: the “% cells that survived, Mean” value amounted to 41%. For the same compound, for the setting “HEK293, 24 h”, the viability at 0.1 µM came out at 0%, the viability at 1 µM turned out to be 79.4%, the viability at 10 µM was found to be 70.1% and the viability at 100 µM is 55.7%. For the same compound, the viability at 1000 µM (HEK293, 24 h) was 1.11%.
In the case of `Cc1c(C)c2c(c(C)c1O)CC[C@@](C)(C(=O)O)O2` [SUL - 84, (S)-6-hydroxy-2,5,7,8-tetramethylchroman-2-carboxylic acid], the “% cells that survived, Mean” value is listed as 57%. For the setting “HEK293, 24 h”, the viability at 0.1 µM was 6.22%, the viability at 1 µM was 19.8%, the viability at 10 µM was found to be 70.1% and the viability at 100 µM stood at 95.7%. For the same compound, the viability at 1000 µM (HEK293, 24 h) amounted to 94.5%.
Regarding `Cc1c(C)c2c(c(C)c1O)CC[C@](C)(C(=O)O)O2` [SUL - 85, (R)-6-hydroxy-2,5,7,8-tetramethylchroman-2-carboxylic acid], the “% cells that survived, Mean” value was 33%. Besides, under “HEK293, 24 h”, the viability at 0.1 µM amounted to 1.23%, the viability at 1 µM stood at 0%, the viability at 10 µM came to 1.43% and the viability at 100 µM is 84.9%. For the same compound, the viability at 1000 µM (HEK293, 24 h) was determined as 78.3%.
For `Cc1c(C)c2c(c(C)c1O)CCC(C)(C(N)=O)O2` (stereo not shown) [SUL - 89, 6-hydroxy-2,5,7,8-tetramethylchroman-2-carboxamide], the “% cells that survived, Mean” value was 76%. For the same compound, for the setting “HEK293, 24 h”, the viability at 0.1 µM worked out at 34.9%, the viability at 1 µM was 88.6%, the viability at 10 µM turned out to be 91.6% and the viability at 100 µM worked out at 87.6%.
Consider `Cc1c(C)c2c(c(C)c1O)CCC(C)(C(=O)NO)O2` (stereo not shown) [SUL - 90, N,6-dihydroxy-2,5,7,8-tetramethylchroman-2-carboxamide], for which the “% cells that survived, Mean” value worked out at 58%. In addition, for the setting “HEK293, 24 h”, the viability at 0.1 µM came out at 8.67%, the viability at 1 µM was determined as 91.3%, the viability at 10 µM worked out at 90.2% and the viability at 100 µM amounted to 77.9%. Also, the viability at 1000 µM (HEK293, 24 h) was determined as 20.4%.
Consider `CCCCNC(=O)C1(C)CCc2c(C)c(O)c(C)c(C)c2O1` (stereo not shown) [SUL - 91, N-butyl-6-hydroxy-2,5,7,8-tetramethylchroman-2-carboxamide], for which the “% cells that survived, Mean” value came out at 52%. Further, where the note is “HEK293, 24 h”, the viability at 0.1 µM came out at 2.28%, the viability at 1 µM was found to be 82.4%, the viability at 10 µM was 89.5% and the viability at 100 µM stood at 87.5%. The viability at 1000 µM (HEK293, 24 h) was 0%.
For `Cc1c(C)c2c(c(C)c1O)CCC(C)(C(=O)NC(C)C)O2` (stereo not shown) [SUL - 92, 6-hydroxy-N-isopropyl-2,5,7,8-tetramethylchroman-2-carboxamide], the “% cells that survived, Mean” value worked out at 49%. For the same compound, under “HEK293, 24 h”, the viability at 0.1 µM stood at 3.13%, the viability at 1 µM came out at 64.6%, the viability at 10 µM was 87.1% and the viability at 100 µM is 86.5%. Moreover, for the setting “HEK293, 24 h”, the viability at 1000 µM worked out at 1.55%.
For the compound `CC(C)=CCC/C(C)=C/CNC(=O)C1(C)CCc2c(C)c(O)c(C)c(C)c2O1` (stereo not shown) [SUL - 93, (E)-N-(3,7-dimethylocta-2,6-dien-1-yl)-6-hydroxy-2,5,7,8-tetramethylchroman-2-carboxamide], the “% cells that survived, Mean” value is 61%. Moreover, under “HEK293, 24 h”, the viability at 0.1 µM came to 97%, the viability at 1 µM is 96.1%, the viability at 10 µM was 84% and the viability at 100 µM stood at 21.7%. Also, the viability at 1000 µM (HEK293, 24 h) is 8%.
For the compound `Cc1c(C)c2c(c(C)c1O)CCC(C)(C(=O)N1CCOCC1)O2` (stereo not shown) [SUL - 95, (6-hydroxy-2,5,7,8-tetramethylchroman-2-yl)(morpholino)methanone], the “% cells that survived, Mean” value amounted to 72%. In addition, for the setting “HEK293, 24 h”, the viability at 0.1 µM turned out to be 2.76%, the viability at 1 µM came to 86.8%, the viability at 10 µM was 90.4% and the viability at 100 µM worked out at 92.1%. The viability at 1000 µM (HEK293, 24 h) turned out to be 85.9%.
Consider `Cc1c(C)c2c(c(C)c1O)CCC(C)(C(=O)NCc1ccc(F)cc1)O2` (stereo not shown) [SUL - 97, N-(4-fluorobenzyl)-6-hydroxy-2,5,7,8-tetramethylchroman-2-carboxamide], for which the “% cells that survived, Mean” value turned out to be 58%. Besides, where the note is “HEK293, 24 h”, the viability at 0.1 µM was found to be 0%, the viability at 1 µM came out at 95.1%, the viability at 10 µM turned out to be 96.4% and the viability at 100 µM worked out at 91.6%. The viability at 1000 µM (HEK293, 24 h) was 5.17%.
For `Cc1c(C)c2c(c(C)c1O)CCC(C)(C(=O)N[C@H](CO)c1ccccc1)O2` (stereo partly drawn) [SUL - 98, 6-hydroxy-N-((S)-2-hydroxy-1-phenylethyl)-2,5,7,8-tetramethylchroman-2-carboxamide], the “% cells that survived, Mean” value was 75%. Further, under “HEK293, 24 h”, the viability at 0.1 µM is 91%, the viability at 1 µM came to 97.8%, the viability at 10 µM amounted to 97.5% and the viability at 100 µM was determined as 88.5%. Also, the viability at 1000 µM (HEK293, 24 h) was determined as 1.02%.
For the compound `Cc1c(C)c2c(c(C)c1O)CCC(C)(C(=O)NCCCN1CCCCC1)O2` (stereo not shown) [SUL - 102, 6-hydroxy-2,5,7,8-tetramethyl-N-(3-(piperidin-1-yl)propyl)chroman-2-carboxamide], the “% cells that survived, Mean” value amounted to 85%. Also, under “HEK293, 24 h”, the viability at 0.01 µM turned out to be 73.2%, the viability at 0.1 µM turned out to be 95.8%, the viability at 1 µM was 93.7% and the viability at 10 µM was 82%. In addition, for the setting “HEK293, 24 h”, the viability at 100 µM was 73.4% and the viability at 1000 µM is 93.3%.
As to `Cc1c(C)c2c(c(C)c1O)CCC(C)(C(=O)Nc1cccc([N+](=O)[O-])c1)O2` (stereo not shown) [SUL - 104, 6-hydroxy-2,5,7,8-tetramethyl-N-(3-nitrophenyl)chroman-2-carboxamide], the “% cells that survived, Mean” value was 81%. For the setting “HEK293, 24 h”, the viability at 0.01 µM stood at 99.3%, the viability at 0.1 µM came to 99.5%, the viability at 1 µM amounted to 97.5% and the viability at 10 µM worked out at 98.9%. For the same compound, where the note is “HEK293, 24 h”, the viability at 100 µM is 40.9% and the viability at 1000 µM was found to be 52.2%.
On to `Cc1c(C)c2c(c(C)c1O)CCC(C)(C(=O)Nc1ccc(F)cc1)O2` (stereo not shown) [SUL - 106, N-(4-fluorophenyl)-6-hydroxy-2,5,7,8-tetramethylchroman-2-carboxamide], for which the “% cells that survived, Mean” value amounted to 57%. In addition, under “HEK293, 24 h”, the viability at 0.01 µM came out at 77.8%, the viability at 0.1 µM was determined as 76.9%, the viability at 1 µM came out at 63.2% and the viability at 10 µM came out at 68.8%. Moreover, under “HEK293, 24 h”, the viability at 100 µM came out at 55.6% and the viability at 1000 µM is 0%.
In the case of `COC(=O)c1ccc(NC(=O)C2(C)CCc3c(C)c(O)c(C)c(C)c3O2)cc1` (stereo not shown) [SUL - 107, methyl 4-(6-hydroxy-2,5,7,8-tetramethylchroman-2-carboxamido)benzoate], the “% cells that survived, Mean” value is given as 59%. In addition, for the setting “HEK293, 24 h”, the viability at 0.01 µM was 4.42%, the viability at 0.1 µM came out at 95.7%, the viability at 1 µM was 92.7% and the viability at 10 µM was found to be 94.8%. For the same compound, under “HEK293, 24 h”, the viability at 100 µM was 37.6% and the viability at 1000 µM was found to be 28.9%.
With `CCCCN1CCN(C(=O)C2(C)CCc3c(C)c(O)c(C)c(C)c3O2)CC1` (stereo not shown) [SUL - 108, (4-butylpiperazin-1-yl)(6-hydroxy-2,5,7,8-tetramethylchroman-2-yl)methanone], the “% cells that survived, Mean” value is recorded as 55%. Under “HEK293, 24 h”, the viability at 0.01 µM amounted to 0%, the viability at 0.1 µM is 40.9%, the viability at 1 µM came out at 94.2% and the viability at 10 µM is 96.8%. In addition, under “HEK293, 24 h”, the viability at 100 µM came to 96.6% and the viability at 1000 µM amounted to 0%.
As for `Cc1c(C)c2c(c(C)c1O)CCC(C)(C(=O)N[C@@H](C(N)=O)c1ccccc1)O2` (stereo partly drawn) [SUL - 111, N-((R)-2-amino-2-oxo-1-phenylethyl)-6-hydroxy-2,5,7,8-tetramethylchroman-2-carboxamide], the “% cells that survived, Mean” value is given as 90%. Also, for the setting “HEK293, 24 h”, the viability at 0.01 µM came out at 90.9%, the viability at 0.1 µM came to 81.6%, the viability at 1 µM amounted to 97.3% and the viability at 10 µM came out at 93.7%. For the setting “HEK293, 24 h”, the viability at 100 µM came to 94.3% and the viability at 1000 µM was found to be 79.2%.
As for `Cc1c(C)c2c(c(C)c1O)CCC(C)(C(=O)N1CCC[C@H]1CO)O2` (stereo partly drawn) [SUL - 112, (6-hydroxy-2,5,7,8-tetramethylchroman-2-yl)((S)-2-(hydroxymethyl)pyrrolidin-1-yl)methanone], the “% cells that survived, Mean” value is 79%. Further, for the setting “HEK293, 24 h”, the viability at 0.01 µM came to 96.3%, the viability at 0.1 µM came to 96.5%, the viability at 1 µM is 95.4% and the viability at 10 µM came out at 93%. Moreover, under “HEK293, 24 h”, the viability at 100 µM amounted to 93.1% and the viability at 1000 µM is 0%.
Take `Cc1c(C)c2c(c(C)c1O)CCC(C)(C(=O)NCCBr)O2` (stereo not shown) [SUL - 114, N-(2-bromoethyl)-6-hydroxy-2,5,7,8-tetramethylchroman-2-carboxamide]: the “% cells that survived, Mean” value is given as 71%. Besides, where the note is “HEK293”, the viability at 0.01 µM stood at 81.1%, the viability at 0.1 µM is 87.2%, the viability at 1 µM amounted to 89.9% and the viability at 10 µM was 87.7%. Under “HEK293”, the viability at 100 µM amounted to 77.9% and the viability at 1000 µM stood at 0%.
